{
  "source": "patent US6399580B1",
  "about": "“Methods and compositions for stimulating tissue growth and epithelial moisturization” (The Regents of the University of California, priority 1994, dated 2002)",
  "key": {"[1]": {"test_system": "hairless mouse skin", "assay": "Appearance and texture of treated skin", "assay_type": "in vivo", "settings": "application of CBE", "protocol": "To determine whether inhibitors of β-glucocerebrosidase would cause more profound effects than applications of exogenous GlcCER alone (examples 5&6), we next applied the specific, suicide inhibitor, bromoconduritol-B-epoxide (BrCBE) to intact hairless mouse skin (Simonsen Laboratories, Gilroy, Calif.) (Holleran, W. M. et al., J. Clin. Invest. (1993) 91:1656-1664). BrCBE (325 nmol in 20 μl propylene glycol:ethanol, 7:3 vols) was applied once daily for 0-14 days. (Holleran, W. M. et al. (1994) J. Clin. Inv. 93:1756-1764)"}, "[2]": {"test_system": "murine epidermis", "assay": "Epidermal DNA synthesis, [3H]-thymidine incorporation in vivo", "set-up": "species or system mouse", "settings": "CBE 750 nmol/5cm^2/day, five days; FIG. 17"}, "[3]": {"test_system": "hairless mouse epidermis", "assay": "Epidermal / stratum corneum lipid content (HPTLC/TLC)", "assay_type": "in vivo", "protocol": "Hairless mice were treated with BrCBE for 5 days as described in Example 10. The following high performance thin layer chromatograph (HPTLC) system was developed for optimal separation of ceramides and glucosylceramides for quantitation by spectrodensitometry. Extracts were applied to precleaned 10 ×20 cm HPTLC plates, 0.5 cm from lower edge of the plate and fractionated sequentially in a horizontal developmental chamber (Camag, Muttenz, Switzerland) in the following solvent systems: 1) chloroform:methanol:acetic acid (190:9:1), v/v/v) to the top, twice; 2) chloroform:methanol:acetone (76:20:4, by volume) to 30 mm. Between each development, the plate was dried for 5 minutes on a hot plate (40° C.), cooled for 2 minutes, and equilibrated in the tank with the solvents for 3 minutes. After final development, the plates were dried, cooled, dipped in charring solution (1.5% cupric sulfate in acetic acid:sulfuric acid:orthophosphoric acid:water (50:10:10:30, by volume) for 15 seconds, dried (40° .C) for 5 minutes, and then charred at 180° C. for 15 minutes. Plates were scanned with a variable wavelength scanning densitometer (Camag, Muttenz, Switzerland). Lipid amounts for each fraction were estimated using ceramides 3 and 4, and galactosylceramides 1 and 2 as reference standards (Sigma Chemical Co., St. Louis, Mo.).\nThe epidermal glucosylceramide content was determined in mice treated with the topical β-glucocerebrosidase inhibitors. Mice were treated with CBE for one day as described in FIG. 22. The mice were sacrificed and whole skin was excised. Subcutaneous fascia and fat were scraped off, and the samples were placed dermis side down onto […] EDTA in PBS-CMF (pH 7.4) and incubated at 37° C. for 40 min. Skin was blotted dry with a tissue and the epidermis was removed by scraping with a surgical blade. The epidermis was minced, placed into microcentrifuge vials, immediately snap frozen and stored in liquid N2 until extracted.\nFor extraction the tissue was soaked in 7.6 ml Bligh/Dyer extraction media (2 ml chloroform, 4 ml Methanol, 1.6 ml H2O) overnight at room temperature. The following day the tissue was shaken for 20 min. and centrifuged for 10 min. the solvent was removed and the pellet was combined with 7.6 ml Bligh/Dyer media and again shaken and centrifuged. The solvents were combined with solvent from the soaks and filtered through pre-solvent-washed Whatman 43 filter paper, 2 ml chloroform and 2 ml H2O was added to each 7.6 ml quantity of the filtrate and shaken for 10 min. The samples were then centrifuged and the upper phase discarded. The lower phase was washed with 4 ml chloroform, 4 ml MetOH, and 3.6 ml H2O (shaken for 10 min and centrifuged). The upper phase was discarded. The lower phase was dried under N2 in a 47° C. water bath. The lipid was resuspended in chloroform and weighed on the Cahn balance.\nTLC was performed using 15-20 μg samples and quantitated against standard glycosylceramide and 40 μg sample for sphingolipids (Holleran, W. M. et al. (1993) J. Clin. Invest. 91:1656-1664).\nBoth glucosylceramide and ceramide content was then determined in lower (stratum basale) and upper (stratum spinosum, stratum granulosum and stratum corneum) epidermis (FIG. 23). Following 24 hours of CBE treatment samples were excised following treatment (as in Example 16)."}, "[4]": {"settings": "one day of CBE treatment, FIG. 23"}},
  "data": [
    {"smiles": "O[C@H]1[C@H](O)[C@@H](O)[C@@H]2O[C@@H]2[C@@H]1O", "note": "(racemic) [CBE, conduritol-B-epoxide]", "values": [
      {"measurement": "thickness, firmness and pliability of murine skin", "setting": "[1]", "value": "increased"},
      {"measurement": "proliferative index, CBE-treated over control epidermis ([3H]-thymidine incorporation)", "setting": "[2]", "value": "approximately 1.6"},
      {"measurement": "level of glucosylceramide, higher in treated samples", "setting": "[3]; 20 μl of 250 nmol/μl CBE tid x5d, 250 mm^2 skin sample", "value": "34-147%"},
      {"measurement": "level of glucosylceramide, higher in treated samples", "setting": "[3]; 40 μl of 250 nmol/μl CBE tid x3d, 500 mm^2 skin sample", "value": "57-152%"},
      {"measurement": "epidermal glucosylceramide content", "setting": "[3]; one day of CBE application, FIG. 22", "value": "invariably increased"},
      {"measurement": "ceramide levels of upper and lower epidermis", "setting": "[3]; [4]", "value": "not significantly altered"},
      {"measurement": "glucosylceramide content of upper and lower epidermis", "setting": "[3]; [4]", "value": "significant increase"}
    ]}
  ]
}
